Results on 22 compounds are retold here after patent US7319098B2, “1,3-dioxoisoindole derivatives having selective antagonism of T-type calcium channel” (Korea Institute of Science and Technology, priority 2006, dated 2008).

One may read the inhibition as the change of the read-out against control, counted positive when it falls. One may read the IC50 as the concentration needed to halve the response being measured.

The target in one assay is T1, α1G T-type Ca2+ channels (Homo sapiens, UniProt O43497).
T1 construct: expressed in transfected cells; host or cells: HEK293 cells stably expressing α1G and Kir2.1
The experiment in a line: Screening of activity against T-type calcium channel with FDSS6000 (fluorescence, KCl-induced [Ca2+]i increase). The format is cell-based. Conditions: HEK293 cells expressing α1G and Kir2.1, read-out: Inhibitory effect (%) of T-type calcium channel, Inhibition (%); for inhibition at 10 µM: NA: Not Active. In outline:
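HEK293 cells stably expressing α1G plus Kir2.1 were loaded with 5 μM fluo3/AM for 60 min at room temperature in HEPES buffer pH 7.4. In buffer with 10 mM CaCl2, cells were pretreated with compound, then depolarized with 70 mM KCl. The rise in [Ca2+]i was measured by fluorescence […].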

Another assay has as its target T2, α1G T-type Ca2+ currents (Homo sapiens, UniProt O43497).
T2 construct: expressed in transfected cells; host or cells: HEK293
Kind of assay: Electrophysiological whole cell patch clamp method in HEK293 cell. Format: cell-based. Conditions: peak current, step to −30 mV, read-out: Activity (IC50) against T-type calcium channel. How it is done:
Meanwhile, the antagonistic activity of the novel compound of Formula (1) herein against T-type calcium channel was tested as described below. The synthesized compounds were tested for the activity against T-type calcium channel with FDSS6000. […] For the recordings of α1G T-type Ca^2+ currents, the standard whole-cell patch-clamp method was utilized as previously described. Briefly, borosilicate glass electrodes with a resistance of 3˜4 MΩ were pulled and filled with the internal solution contained (in mM): 130 KCl, 11 EGTA, 5 Mg-ATP, and 10 HEPES (pH 7.4). […] The molar concentrations of test compounds required to produce 50% inhibition of peak currents (IC50) were determined from fitting raw data into dose-response curves. The current recordings were obtained using an EPC-9 amplifier and Pulse/Pulsefit software program (HEKA, Germany).
(The patch-clamp technique gives a direct electrical read-out from membranes.)

For assay [1] the following is noted: spinal nerve ligation animal model; cited from earlier work.

T1 sequence (O43497 whole entry): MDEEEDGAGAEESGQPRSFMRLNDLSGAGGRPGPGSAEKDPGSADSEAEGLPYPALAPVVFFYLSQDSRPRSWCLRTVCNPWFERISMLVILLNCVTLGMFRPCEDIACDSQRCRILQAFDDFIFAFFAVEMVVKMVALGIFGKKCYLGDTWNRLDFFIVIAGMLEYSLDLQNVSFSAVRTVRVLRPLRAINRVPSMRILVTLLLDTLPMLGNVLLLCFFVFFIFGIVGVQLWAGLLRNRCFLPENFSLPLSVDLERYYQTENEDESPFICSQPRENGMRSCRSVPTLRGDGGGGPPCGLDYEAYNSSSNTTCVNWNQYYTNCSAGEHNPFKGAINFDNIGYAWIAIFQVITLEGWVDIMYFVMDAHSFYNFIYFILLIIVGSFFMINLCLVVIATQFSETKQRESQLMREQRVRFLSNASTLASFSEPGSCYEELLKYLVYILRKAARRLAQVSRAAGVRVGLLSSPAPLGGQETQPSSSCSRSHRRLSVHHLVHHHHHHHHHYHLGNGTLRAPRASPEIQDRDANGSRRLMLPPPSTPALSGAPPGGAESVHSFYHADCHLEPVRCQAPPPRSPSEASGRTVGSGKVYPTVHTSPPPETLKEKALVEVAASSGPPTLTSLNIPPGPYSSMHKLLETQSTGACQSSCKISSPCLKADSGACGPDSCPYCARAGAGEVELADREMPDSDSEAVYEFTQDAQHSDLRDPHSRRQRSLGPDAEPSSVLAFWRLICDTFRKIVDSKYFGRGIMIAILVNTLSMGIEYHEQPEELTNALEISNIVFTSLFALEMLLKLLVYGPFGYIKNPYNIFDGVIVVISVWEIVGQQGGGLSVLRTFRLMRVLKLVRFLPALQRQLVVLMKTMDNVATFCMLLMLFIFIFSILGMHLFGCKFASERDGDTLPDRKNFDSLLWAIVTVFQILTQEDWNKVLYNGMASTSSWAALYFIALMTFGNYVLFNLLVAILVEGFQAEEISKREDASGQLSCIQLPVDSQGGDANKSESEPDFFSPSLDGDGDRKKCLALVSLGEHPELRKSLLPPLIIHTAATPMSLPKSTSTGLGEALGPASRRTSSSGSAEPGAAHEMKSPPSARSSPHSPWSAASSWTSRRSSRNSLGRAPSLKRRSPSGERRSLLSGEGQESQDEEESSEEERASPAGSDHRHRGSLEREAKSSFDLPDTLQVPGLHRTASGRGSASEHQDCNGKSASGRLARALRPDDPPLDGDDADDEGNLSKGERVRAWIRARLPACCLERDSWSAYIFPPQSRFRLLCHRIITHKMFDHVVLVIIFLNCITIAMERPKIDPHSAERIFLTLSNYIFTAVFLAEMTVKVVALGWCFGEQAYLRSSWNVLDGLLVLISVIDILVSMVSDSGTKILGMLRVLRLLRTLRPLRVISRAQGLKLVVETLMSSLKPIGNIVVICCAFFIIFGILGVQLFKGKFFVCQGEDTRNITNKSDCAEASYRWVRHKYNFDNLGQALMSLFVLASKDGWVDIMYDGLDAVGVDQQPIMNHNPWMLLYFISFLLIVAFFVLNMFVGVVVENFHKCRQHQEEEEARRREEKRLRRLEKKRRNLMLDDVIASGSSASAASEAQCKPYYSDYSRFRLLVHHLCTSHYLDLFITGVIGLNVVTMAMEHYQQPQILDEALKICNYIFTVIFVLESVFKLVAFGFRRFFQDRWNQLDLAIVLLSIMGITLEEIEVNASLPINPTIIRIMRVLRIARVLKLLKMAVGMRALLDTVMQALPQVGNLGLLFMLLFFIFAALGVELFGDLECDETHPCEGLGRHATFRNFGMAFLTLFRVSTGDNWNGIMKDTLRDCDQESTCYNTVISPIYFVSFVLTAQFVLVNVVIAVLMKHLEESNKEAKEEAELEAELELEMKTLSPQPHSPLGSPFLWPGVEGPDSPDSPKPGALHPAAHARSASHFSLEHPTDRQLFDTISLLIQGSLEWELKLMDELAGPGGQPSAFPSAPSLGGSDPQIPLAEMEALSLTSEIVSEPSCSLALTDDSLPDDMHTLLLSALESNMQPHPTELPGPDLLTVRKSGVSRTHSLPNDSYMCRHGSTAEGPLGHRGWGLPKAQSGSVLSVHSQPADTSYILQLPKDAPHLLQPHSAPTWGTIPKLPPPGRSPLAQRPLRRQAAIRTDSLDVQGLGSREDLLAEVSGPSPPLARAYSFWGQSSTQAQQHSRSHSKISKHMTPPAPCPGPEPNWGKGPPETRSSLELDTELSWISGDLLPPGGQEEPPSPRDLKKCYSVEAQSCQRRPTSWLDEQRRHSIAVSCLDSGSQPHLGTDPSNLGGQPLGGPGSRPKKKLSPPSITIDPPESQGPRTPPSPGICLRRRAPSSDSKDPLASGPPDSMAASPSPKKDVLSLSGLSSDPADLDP
T2 sequence (O43497 whole entry): as above

For the compound `O=C(NCCN1CCCCC1)c1ccc2c(c1)C(=O)N(Cc1cccc(F)c1)C2=O` [Compound 61, 1-(2-{[2-(3-fluoro-benzyl)-1,3-dioxo-2,3-dihydro-1H-isoindol-5-carbonyl]-amino}-ethyl)-piperidinium chloride], the inhibition at 100 µM at α1G T-type Ca2+ channels stood at 85.5%. Further, the IC50 at α1G T-type Ca2+ currents stood at 8520 ± 750 nM.

On to `CC1CCCCN1CCCNC(=O)c1ccc2c(c1)C(=O)N(Cc1ccc(F)cc1)C2=O` (stereo not drawn) [Compound 69, 1-(3-{[2-(4-fluoro-benzyl)-1,3-dioxo-2,3-dihydro-1H-isoindol-5-carbonyl]-amino}-propyl)-2-methyl-piperidinium chloride], for which the inhibition at 100 µM on α1G T-type Ca2+ channels worked out at 84.7%. Besides, at α1G T-type Ca2+ currents, the IC50 came out at 2030 ± 120 nM.

On to `CC1CCCCN1CCCNC(=O)c1ccc2c(c1)C(=O)N(Cc1ccccc1Cl)C2=O` (stereo not drawn) [Compound 76, 1-(3-{[2-(2-chloro-benzyl)-1,3-dioxo-2,3-dihydro-1H-isoindol-5-carbonyl]-amino}-propyl)-2-methyl-piperidinium chloride], for which, at α1G T-type Ca2+ channels, the inhibition at 10 µM turned out to be 50.9%. The IC50 on α1G T-type Ca2+ currents is 1520 ± 190 nM.

For the compound `CC1CCCCN1CCCNC(=O)c1ccc2c(c1)C(=O)N(Cc1cccc(Cl)c1)C2=O` (stereo not drawn) [Compound 82, 1-(3-{[2-(3-chloro-benzyl)-1,3-dioxo-2,3-dihydro-1H-isoindol-5-carbonyl]-amino}-propyl)-2-methyl-piperidinium chloride], the inhibition at 10 µM at α1G T-type Ca2+ channels was 46.2%. Besides, the IC50 on α1G T-type Ca2+ currents was found to be 1810 ± 460 nM.

Turning to `O=C(NCCN1CCCCC1)c1ccc2c(c1)C(=O)N(Cc1ccc(Cl)cc1)C2=O` [Compound 87, 1-(2-{[2-(4-chloro-benzyl)-1,3-dioxo-2,3-dihydro-1H-isoindol-5-carbonyl]-amino}-ethyl)-piperidinium chloride], at α1G T-type Ca2+ channels, the inhibition at 10 µM was 47.2%. Moreover, on α1G T-type Ca2+ currents, the half-maximal inhibitory concentration (IC50) was 960 ± 70 nM.

For `CC1CCCCN1CCCNC(=O)c1ccc2c(c1)C(=O)N(Cc1ccc(Cl)cc1)C2=O` (stereo not drawn) [Compound 88, 1-(3-{[2-(4-chloro-benzyl)-1,3-dioxo-2,3-dihydro-1H-isoindol-5-carbonyl]-amino}-propyl)-2-methyl-piperidinium chloride], the inhibition at 10 µM on α1G T-type Ca2+ channels came to 46.6%. The IC50 at α1G T-type Ca2+ currents worked out at 930 ± 60 nM.

Consider `Cc1ccccc1CN1C(=O)c2ccc(C(=O)NCCN3CCCCC3)cc2C1=O` [Compound 93, 1-(2-{[2-(2-methyl-benzyl)-1,3-dioxo-2,3-dihydro-1H-isoindol-5-carbonyl]-amino}-ethyl)-piperidinium chloride], for which, at α1G T-type Ca2+ channels, the inhibition at 100 µM was 90.4%. At α1G T-type Ca2+ currents, the IC50 is 8280 ± 2950 nM.

Turning to `Cc1ccccc1CN1C(=O)c2ccc(C(=O)NCCCN3CCCCC3C)cc2C1=O` (stereo not drawn) [Compound 94, 2-methyl-1-(3-{[2-(2-methyl-benzyl)-1,3-dioxo-2,3-dihydro-1H-isoindol-5-carbonyl]-amino}-propyl)-piperidinium chloride], the inhibition at 100 µM on α1G T-type Ca2+ channels stood at 84.8%. Moreover, the IC50 at α1G T-type Ca2+ currents turned out to be 2070 ± 450 nM.

For the compound `Cc1cccc(CN2C(=O)c3ccc(C(=O)NCCN4CCCCC4)cc3C2=O)c1` [Compound 99, 1-(2-{[2-(3-methyl-benzyl)-1,3-dioxo-2,3-dihydro-1H-isoindol-5-carbonyl]-amino}-ethyl)-piperidinium chloride], on α1G T-type Ca2+ channels, the inhibition at 100 µM came to 89.7%. For the same compound, the IC50 at α1G T-type Ca2+ currents was found to be 1930 ± 230 nM.

Consider `Cc1cccc(CN2C(=O)c3ccc(C(=O)NCCCN4CCCCC4C)cc3C2=O)c1` (stereo not drawn) [Compound 100, 2-methyl-1-(3-{[2-(3-methyl-benzyl)-1,3-dioxo-2,3-dihydro-1H-isoindol-5-carbonyl]-amino}-propyl)-piperidinium chloride], for which the inhibition at 10 µM on α1G T-type Ca2+ channels came out at 48.4%. Besides, the IC50 at α1G T-type Ca2+ currents stood at 1840 ± 210 nM.

`COc1cccc(CN2C(=O)c3ccc(C(=O)NCCN4CCOCC4)cc3C2=O)c1` [Compound 121, 4-(2-{[2-(3-methoxy-benzyl)-1,3-dioxo-2,3-dihydro-1H-isoindol-5-carbonyl]-amino}-ethyl)-4-morpholinium chloride]: the inhibition at 100 µM at α1G T-type Ca2+ channels was determined as 57.6%.

Turning to `COc1cccc(CN2C(=O)c3ccc(C(=O)NCCCN4CCOCC4)cc3C2=O)c1` [Compound 122, 4-(3-{[2-(3-methoxy-benzyl)-1,3-dioxo-2,3-dihydro-1H-isoindol-5-carbonyl]-amino}-propyl)-4-morpholinium chloride], the inhibition at 100 µM on α1G T-type Ca2+ channels stood at 56.6%.

As to `COc1ccc(CN2C(=O)c3ccc(C(=O)NCCN4CCCCC4)cc3C2=O)cc1` [Compound 123, 1-(2-{[2-(4-methoxy-benzyl)-1,3-dioxo-2,3-dihydro-1H isoindol-5-carbonyl]-amino}-ethyl)-piperidinium chloride], the inhibition at 100 µM on α1G T-type Ca2+ channels was 64.3%.

For the compound `COc1ccc(CN2C(=O)c3ccc(C(=O)NCCCN4CCCCC4C)cc3C2=O)cc1` (stereo not drawn) [Compound 124, 1-(3-{[2-(4-methoxy-benzyl)-1,3-dioxo-2,3-dihydro-1H-isoindol-5-carbonyl]-amino}-propyl)-2-methyl-piperidinium chloride], at α1G T-type Ca2+ channels, the inhibition at 100 µM was determined as 77.7%.

Turning to `COc1ccc(CN2C(=O)c3ccc(C(=O)NCCN4CCCC4)cc3C2=O)cc1` [Compound 125, 1-(2-{[2-(4-methoxy-benzyl)-1,3-dioxo-2,3-dihydro-1H-isoindol-5-carbonyl]-amino}-ethyl)-pyrrolidinium chloride], the inhibition at 100 µM at α1G T-type Ca2+ channels turned out to be 65.2%.

In the case of `COc1ccc(CN2C(=O)c3ccc(C(=O)NCCCN4CCCC4)cc3C2=O)cc1` [Compound 126, 1-(3-{[2-(4-methoxy-benzyl)-1,3-dioxo-2,3-dihydro-1H-isoindol-5-carbonyl]-amino}-propyl)-pyrrolidinium chloride], the inhibition at 100 µM on α1G T-type Ca2+ channels amounted to 73.8%.

Take `COc1ccc(CN2C(=O)c3ccc(C(=O)NCCN4CCOCC4)cc3C2=O)cc1` [Compound 127, 4-(2-{[2-(4-methoxy-benzyl)-1,3-dioxo-2,3-dihydro-1H-isoindol-5-carbonyl]-amino}-ethyl)-4-morpholinium chloride]: the inhibition at 100 µM at α1G T-type Ca2+ channels is 51.7%.

In the case of `COc1ccc(CN2C(=O)c3ccc(C(=O)NCCCN4CCOCC4)cc3C2=O)cc1` [Compound 128, 4-(3-{[2-(4-methoxy-benzyl)-1,3-dioxo-2,3-dihydro-1H-isoindol-5-carbonyl]-amino}-propyl)-4-morpholinium chloride], the inhibition at 100 µM at α1G T-type Ca2+ channels amounted to 52.9%.

For the compound `CC1CCCCN1CCCNC(=O)c1ccc2c(c1)C(=O)N(Cc1ccc(C#N)cc1)C2=O` (stereo not drawn) [Compound 130, 1-(3-{[2-(4-cyano-benzyl)-1,3-dioxo-2,3-dihydro-1H-isoindol-5-carbonyl]-amino}-propyl)-2-methyl-piperidinium chloride], at α1G T-type Ca2+ channels, the inhibition at 10 µM came to 9.1%.

Regarding `N#Cc1ccc(CN2C(=O)c3ccc(C(=O)NCCN4CCCC4)cc3C2=O)cc1` [Compound 131, 1-(2-{[2-(4-cyano-benzyl)-1,3-dioxo-2,3-dihydro-1H-isoindol-5-carbonyl]-amino}-ethyl)-pyrrolidinium chloride], the inhibition at 10 µM at α1G T-type Ca2+ channels came out at 0.6%.

Consider `CCC1(C)CC(=O)NC1=O` (stereo not drawn) [Ethosuximide], for which the “effect on mechanic and thermal induction (neurogenic pain)” value in assay [1] is “dosage-dependent reversed mechanic and thermal induction”.

On to `COCC(=O)O[C@]1(CCN(C)CCCc2nc3ccccc3[nH]2)CCc2cc(F)ccc2[C@@H]1C(C)C` [Mibefradil, reference compound], for which the inhibition at 10 µM at α1G T-type Ca2+ channels came out at 75.1%. Also, the “effect on mechanic and thermal induction (neurogenic pain)” value in assay [1] was “dosage-dependent reversed mechanic and thermal induction”.
